How the values were obtained:
Assay in all cases: Kinobeads competition binding with immobilized CZC25342, mixed HeLa placenta lysates (Example 5, Table 7)
[1] = target: T1, kinases from mixed HeLa placenta lysates (Homo sapiens, UniProt O43318); conditions: kinase MAP3K7; 10 μM free compound; HeLa Placenta lysate mix
T1 construct: capturing and identification of kinases from mixed HeLa placenta lysates; endogenous in cells; host or cells: mixed lysate of HeLa cells and placenta tissue
Protocol: (§1) To one aliquot of cell lysate 10 μM of the free compound (FIG. 2, CZC25342) was added and allowed to bind to proteins in the lysate. Then the affinity matrix with the immobilized compound was added to capture proteins that were not interacting with the previously added free compound. Beads were separated from the lysate and bead bound proteins were eluted in SDS sample buffer and subsequently separated by SDS-Polyacrylamide gel electrophoresis (FIG. 11). Suitable gel bands were cut out and subjected to in-gel proteolytic digestion with trypsin. The second lysate aliquot was processed identically, however no free compound was added (DMSO solvent control). Peptides originating from samples 1 and 2 were labeled with iTRAQ reagents (iTRAQ 114 and iTRAQ 117) and the combined samples were analyzed with a nano-flow liquid chromatography system coupled online to a tandem mass spectrometer (LC-MS/MS) experiment followed by iTRAQ reporter ion quantification in the MS/MS spectra as described in Example 2. The identified kinases are shown in Table 7 including the percent competition values for the sample to which 10 μM free compound had been added. In total of 83 different kinases were identified and competed by different degrees.

[2] = target: T2, kinases from mixed HeLa placenta lysates (Homo sapiens, UniProt Q9Y616); conditions: kinase IRAK3; 10 μM free compound; HeLa Placenta lysate mix
T2 construct: capturing and identification of kinases from mixed HeLa placenta lysates; endogenous in cells; host or cells: mixed lysate of HeLa cells and placenta tissue
Protocol: as §1

[3] = target: T3, kinases from mixed HeLa placenta lysates (Homo sapiens, UniProt Q6PHR2); conditions: kinase ULK3; 10 μM free compound; HeLa Placenta lysate mix
T3 construct: capturing and identification of kinases from mixed HeLa placenta lysates; endogenous in cells; host or cells: mixed lysate of HeLa cells and placenta tissue
Protocol: as §1

[4] = target: T4, kinases from mixed HeLa placenta lysates (Homo sapiens, UniProt Q9H2G2); conditions: kinase SLK; 10 μM free compound; HeLa Placenta lysate mix
T4 construct: capturing and identification of kinases from mixed HeLa placenta lysates; endogenous in cells; host or cells: mixed lysate of HeLa cells and placenta tissue
Protocol: as §1

[5] = target: T5, kinases from mixed HeLa placenta lysates (Homo sapiens, UniProt Q13470); conditions: kinase TNK1; 10 μM free compound; HeLa Placenta lysate mix
T5 construct: capturing and identification of kinases from mixed HeLa placenta lysates; endogenous in cells; host or cells: mixed lysate of HeLa cells and placenta tissue
Protocol: as §1

[6] = target: T6, kinases from mixed HeLa placenta lysates (Homo sapiens, UniProt Q04912); conditions: kinase RON; 10 μM free compound; HeLa Placenta lysate mix
T6 construct: capturing and identification of kinases from mixed HeLa placenta lysates; endogenous in cells; host or cells: mixed lysate of HeLa cells and placenta tissue
Protocol: as §1

[7] = target: T7, kinases from mixed HeLa placenta lysates (Homo sapiens, UniProt P15735); conditions: kinase PHKg2; 10 μM free compound; HeLa Placenta lysate mix
T7 construct: capturing and identification of kinases from mixed HeLa placenta lysates; endogenous in cells; host or cells: mixed lysate of HeLa cells and placenta tissue
Protocol: as §1

[8] = target: T8, kinases from mixed HeLa placenta lysates (Homo sapiens, UniProt P23458); conditions: kinase JAK1; 10 μM free compound; HeLa Placenta lysate mix
T8 construct: capturing and identification of kinases from mixed HeLa placenta lysates; endogenous in cells; host or cells: mixed lysate of HeLa cells and placenta tissue
Protocol: as §1

[9] = target: T9, kinases from mixed HeLa placenta lysates (Homo sapiens, UniProt Q9UHD2); conditions: kinase TBK1; 10 μM free compound; HeLa Placenta lysate mix
T9 construct: capturing and identification of kinases from mixed HeLa placenta lysates; endogenous in cells; host or cells: mixed lysate of HeLa cells and placenta tissue
Protocol: as §1

[10] = target: T10, kinases from mixed HeLa placenta lysates (Homo sapiens, UniProt O75716); conditions: kinase MPSK1; 10 μM free compound; HeLa Placenta lysate mix
T10 construct: capturing and identification of kinases from mixed HeLa placenta lysates; endogenous in cells; host or cells: mixed lysate of HeLa cells and placenta tissue
Protocol: as §1

[11] = target: T11, kinases from mixed HeLa placenta lysates (Homo sapiens, UniProt P06493); conditions: kinase CDC2; 10 μM free compound; HeLa Placenta lysate mix
T11 construct: capturing and identification of kinases from mixed HeLa placenta lysates; endogenous in cells; host or cells: mixed lysate of HeLa cells and placenta tissue
Protocol: as §1

[12] = target: T12, kinases from mixed HeLa placenta lysates (Homo sapiens, UniProt Q14164); conditions: kinase IKKe; 10 μM free compound; HeLa Placenta lysate mix
T12 construct: capturing and identification of kinases from mixed HeLa placenta lysates; endogenous in cells; host or cells: mixed lysate of HeLa cells and placenta tissue
Protocol: as §1

[13] = target: T13, kinases from mixed HeLa placenta lysates (Homo sapiens, UniProt O94804); conditions: kinase LOK; 10 μM free compound; HeLa Placenta lysate mix
T13 construct: capturing and identification of kinases from mixed HeLa placenta lysates; endogenous in cells; host or cells: mixed lysate of HeLa cells and placenta tissue
Protocol: as §1

[14] = target: T14, kinases from mixed HeLa placenta lysates (Homo sapiens, UniProt P16591); conditions: kinase FER; 10 μM free compound; HeLa Placenta lysate mix
T14 construct: capturing and identification of kinases from mixed HeLa placenta lysates; endogenous in cells; host or cells: mixed lysate of HeLa cells and placenta tissue
Protocol: as §1

[15] = target: T15, kinases from mixed HeLa placenta lysates (Homo sapiens, UniProt Q13976); conditions: kinase PKG1; 10 μM free compound; HeLa Placenta lysate mix
T15 construct: capturing and identification of kinases from mixed HeLa placenta lysates; endogenous in cells; host or cells: mixed lysate of HeLa cells and placenta tissue
Protocol: as §1

[16] = target: T16, kinases from mixed HeLa placenta lysates (Homo sapiens, UniProt Q13233); conditions: kinase MAP3K1; 10 μM free compound; HeLa Placenta lysate mix
T16 construct: capturing and identification of kinases from mixed HeLa placenta lysates; endogenous in cells; host or cells: mixed lysate of HeLa cells and placenta tissue
Protocol: as §1

[17] = target: T17, kinases from mixed HeLa placenta lysates (Homo sapiens, UniProt P29597); conditions: kinase TYK2; 10 μM free compound; HeLa Placenta lysate mix
T17 construct: capturing and identification of kinases from mixed HeLa placenta lysates; endogenous in cells; host or cells: mixed lysate of HeLa cells and placenta tissue
Protocol: as §1

[18] = target: T18, kinases from mixed HeLa placenta lysates (Homo sapiens, UniProt O14976); conditions: kinase GAK; 10 μM free compound; HeLa Placenta lysate mix
T18 construct: capturing and identification of kinases from mixed HeLa placenta lysates; endogenous in cells; host or cells: mixed lysate of HeLa cells and placenta tissue
Protocol: as §1

[19] = target: T19, kinases from mixed HeLa placenta lysates (Homo sapiens, UniProt Q9Y2U5); conditions: kinase MAP3K2; 10 μM free compound; HeLa Placenta lysate mix
T19 construct: capturing and identification of kinases from mixed HeLa placenta lysates; endogenous in cells; host or cells: mixed lysate of HeLa cells and placenta tissue
Protocol: as §1

[20] = target: T20, kinases from mixed HeLa placenta lysates (Homo sapiens, UniProt Q04771); conditions: kinase ALK2; 10 μM free compound; HeLa Placenta lysate mix
T20 construct: capturing and identification of kinases from mixed HeLa placenta lysates; endogenous in cells; host or cells: mixed lysate of HeLa cells and placenta tissue
Protocol: as §1

[21] = target: T21, kinases from mixed HeLa placenta lysates (Homo sapiens, UniProt Q15349); conditions: kinase RSK3; 10 μM free compound; HeLa Placenta lysate mix
T21 construct: capturing and identification of kinases from mixed HeLa placenta lysates; endogenous in cells; host or cells: mixed lysate of HeLa cells and placenta tissue
Protocol: as §1

[22] = target: T22, kinases from mixed HeLa placenta lysates (Homo sapiens, UniProt P27448); conditions: kinase MARK3; 10 μM free compound; HeLa Placenta lysate mix
T22 construct: capturing and identification of kinases from mixed HeLa placenta lysates; endogenous in cells; host or cells: mixed lysate of HeLa cells and placenta tissue
Protocol: as §1

[23] = target: T23, kinases from mixed HeLa placenta lysates (Homo sapiens, UniProt P49840); conditions: kinase GSK3A; 10 μM free compound; HeLa Placenta lysate mix
T23 construct: capturing and identification of kinases from mixed HeLa placenta lysates; endogenous in cells; host or cells: mixed lysate of HeLa cells and placenta tissue
Protocol: as §1

[24] = target: T24, kinases from mixed HeLa placenta lysates (Homo sapiens, UniProt P45983); conditions: kinase JNK1; 10 μM free compound; HeLa Placenta lysate mix
T24 construct: capturing and identification of kinases from mixed HeLa placenta lysates; endogenous in cells; host or cells: mixed lysate of HeLa cells and placenta tissue
Protocol: as §1

T11 sequence (P06493 whole entry): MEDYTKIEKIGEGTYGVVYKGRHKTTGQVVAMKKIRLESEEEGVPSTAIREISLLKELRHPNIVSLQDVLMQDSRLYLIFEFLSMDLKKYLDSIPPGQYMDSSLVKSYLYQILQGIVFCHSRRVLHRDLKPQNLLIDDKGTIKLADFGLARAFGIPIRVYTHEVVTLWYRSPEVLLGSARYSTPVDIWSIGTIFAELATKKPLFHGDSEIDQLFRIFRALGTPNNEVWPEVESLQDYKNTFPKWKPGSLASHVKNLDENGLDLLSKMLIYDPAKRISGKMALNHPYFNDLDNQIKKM
T24 sequence (P45983 whole entry): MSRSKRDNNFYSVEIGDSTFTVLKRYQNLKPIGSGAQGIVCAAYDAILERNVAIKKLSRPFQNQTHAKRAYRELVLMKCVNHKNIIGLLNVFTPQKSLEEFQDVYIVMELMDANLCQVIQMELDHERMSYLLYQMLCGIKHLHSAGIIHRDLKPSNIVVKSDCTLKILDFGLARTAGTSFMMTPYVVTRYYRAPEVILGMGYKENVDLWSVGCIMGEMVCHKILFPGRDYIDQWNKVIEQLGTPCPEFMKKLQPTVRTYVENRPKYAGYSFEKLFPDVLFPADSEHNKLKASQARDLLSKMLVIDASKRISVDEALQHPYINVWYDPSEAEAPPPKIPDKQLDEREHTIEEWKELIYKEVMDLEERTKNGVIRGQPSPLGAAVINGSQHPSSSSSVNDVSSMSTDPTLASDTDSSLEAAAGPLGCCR
T15 sequence (Q13976 whole entry): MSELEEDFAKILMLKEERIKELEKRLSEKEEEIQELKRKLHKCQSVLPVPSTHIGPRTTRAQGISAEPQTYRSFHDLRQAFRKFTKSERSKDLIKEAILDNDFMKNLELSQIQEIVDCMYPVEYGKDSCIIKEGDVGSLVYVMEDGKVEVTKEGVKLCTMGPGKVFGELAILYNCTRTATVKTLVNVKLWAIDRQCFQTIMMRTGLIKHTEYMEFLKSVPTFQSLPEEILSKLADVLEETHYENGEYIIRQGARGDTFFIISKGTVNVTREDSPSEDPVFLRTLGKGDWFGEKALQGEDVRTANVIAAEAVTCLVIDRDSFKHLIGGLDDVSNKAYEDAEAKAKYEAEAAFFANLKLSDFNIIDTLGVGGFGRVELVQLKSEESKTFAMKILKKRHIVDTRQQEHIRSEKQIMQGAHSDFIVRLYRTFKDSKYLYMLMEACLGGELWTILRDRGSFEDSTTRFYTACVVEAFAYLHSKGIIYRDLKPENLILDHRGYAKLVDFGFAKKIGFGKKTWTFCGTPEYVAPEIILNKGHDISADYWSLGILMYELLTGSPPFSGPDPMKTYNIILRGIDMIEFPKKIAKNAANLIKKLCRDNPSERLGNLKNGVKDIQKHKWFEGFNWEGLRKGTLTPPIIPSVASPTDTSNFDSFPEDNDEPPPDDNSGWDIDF
T6 sequence (Q04912 25-1400): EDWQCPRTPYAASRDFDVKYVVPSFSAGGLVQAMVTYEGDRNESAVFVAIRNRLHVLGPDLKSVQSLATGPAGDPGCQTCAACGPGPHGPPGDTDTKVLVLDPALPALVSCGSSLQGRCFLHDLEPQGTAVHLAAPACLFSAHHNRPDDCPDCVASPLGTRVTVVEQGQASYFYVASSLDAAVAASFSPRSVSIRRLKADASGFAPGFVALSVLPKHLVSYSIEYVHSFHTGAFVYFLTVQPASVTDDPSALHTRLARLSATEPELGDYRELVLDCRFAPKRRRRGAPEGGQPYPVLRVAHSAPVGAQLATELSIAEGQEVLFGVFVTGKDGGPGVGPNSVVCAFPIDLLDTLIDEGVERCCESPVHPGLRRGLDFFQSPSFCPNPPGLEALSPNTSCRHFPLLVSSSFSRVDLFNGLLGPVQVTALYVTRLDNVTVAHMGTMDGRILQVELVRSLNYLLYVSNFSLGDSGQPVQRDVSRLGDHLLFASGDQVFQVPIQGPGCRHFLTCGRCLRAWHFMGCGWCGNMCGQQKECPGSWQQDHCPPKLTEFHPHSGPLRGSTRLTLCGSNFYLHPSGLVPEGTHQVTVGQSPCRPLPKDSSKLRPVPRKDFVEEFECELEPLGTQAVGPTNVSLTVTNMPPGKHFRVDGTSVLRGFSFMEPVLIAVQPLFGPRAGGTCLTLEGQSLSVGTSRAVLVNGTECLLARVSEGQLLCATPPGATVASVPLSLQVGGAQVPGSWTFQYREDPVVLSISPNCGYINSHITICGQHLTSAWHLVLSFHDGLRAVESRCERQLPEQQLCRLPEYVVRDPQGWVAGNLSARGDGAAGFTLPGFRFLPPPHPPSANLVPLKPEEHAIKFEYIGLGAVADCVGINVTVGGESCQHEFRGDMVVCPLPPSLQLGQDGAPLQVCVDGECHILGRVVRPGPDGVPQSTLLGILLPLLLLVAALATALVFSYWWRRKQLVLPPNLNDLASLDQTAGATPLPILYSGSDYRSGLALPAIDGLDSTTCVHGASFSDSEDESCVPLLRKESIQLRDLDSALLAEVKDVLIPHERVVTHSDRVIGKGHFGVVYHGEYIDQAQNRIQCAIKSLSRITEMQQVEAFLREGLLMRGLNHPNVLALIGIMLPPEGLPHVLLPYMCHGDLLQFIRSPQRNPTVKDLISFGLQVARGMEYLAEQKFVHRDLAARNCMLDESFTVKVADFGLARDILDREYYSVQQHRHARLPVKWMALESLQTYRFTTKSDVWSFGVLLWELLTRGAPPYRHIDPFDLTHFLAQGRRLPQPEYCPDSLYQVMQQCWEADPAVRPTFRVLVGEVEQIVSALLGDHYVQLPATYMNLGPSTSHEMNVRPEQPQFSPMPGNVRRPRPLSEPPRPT
T12 sequence (Q14164 whole entry): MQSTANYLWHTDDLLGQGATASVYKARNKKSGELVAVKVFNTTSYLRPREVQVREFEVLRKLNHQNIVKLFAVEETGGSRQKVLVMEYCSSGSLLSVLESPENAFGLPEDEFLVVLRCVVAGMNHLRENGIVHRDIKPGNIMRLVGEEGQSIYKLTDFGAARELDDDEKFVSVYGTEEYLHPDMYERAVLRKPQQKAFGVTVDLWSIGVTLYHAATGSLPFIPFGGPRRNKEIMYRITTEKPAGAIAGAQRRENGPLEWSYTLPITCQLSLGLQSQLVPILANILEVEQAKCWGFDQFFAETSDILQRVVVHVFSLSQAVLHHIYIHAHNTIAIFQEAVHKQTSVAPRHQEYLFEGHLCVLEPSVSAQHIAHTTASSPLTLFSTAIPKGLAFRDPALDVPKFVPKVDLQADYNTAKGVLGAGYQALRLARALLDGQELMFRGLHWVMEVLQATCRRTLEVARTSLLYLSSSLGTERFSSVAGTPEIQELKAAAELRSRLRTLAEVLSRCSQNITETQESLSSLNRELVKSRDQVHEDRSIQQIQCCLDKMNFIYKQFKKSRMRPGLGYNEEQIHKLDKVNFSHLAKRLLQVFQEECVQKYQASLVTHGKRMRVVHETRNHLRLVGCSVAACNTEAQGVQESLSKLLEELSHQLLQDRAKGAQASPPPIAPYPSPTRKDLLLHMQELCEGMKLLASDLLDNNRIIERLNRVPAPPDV
T3 sequence (Q6PHR2 whole entry): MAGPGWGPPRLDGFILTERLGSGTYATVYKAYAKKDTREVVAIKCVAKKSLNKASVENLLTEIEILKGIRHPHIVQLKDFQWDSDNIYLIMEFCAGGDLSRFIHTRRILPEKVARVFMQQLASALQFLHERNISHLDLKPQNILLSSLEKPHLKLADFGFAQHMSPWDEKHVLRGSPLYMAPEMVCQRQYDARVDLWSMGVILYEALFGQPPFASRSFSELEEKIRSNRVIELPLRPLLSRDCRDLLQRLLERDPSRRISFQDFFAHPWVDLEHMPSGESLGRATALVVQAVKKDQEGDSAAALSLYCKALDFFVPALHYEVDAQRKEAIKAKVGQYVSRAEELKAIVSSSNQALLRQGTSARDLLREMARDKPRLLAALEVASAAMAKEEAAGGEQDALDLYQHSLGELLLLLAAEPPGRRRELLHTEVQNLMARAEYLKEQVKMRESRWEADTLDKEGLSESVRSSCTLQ
T23 sequence (P49840 whole entry): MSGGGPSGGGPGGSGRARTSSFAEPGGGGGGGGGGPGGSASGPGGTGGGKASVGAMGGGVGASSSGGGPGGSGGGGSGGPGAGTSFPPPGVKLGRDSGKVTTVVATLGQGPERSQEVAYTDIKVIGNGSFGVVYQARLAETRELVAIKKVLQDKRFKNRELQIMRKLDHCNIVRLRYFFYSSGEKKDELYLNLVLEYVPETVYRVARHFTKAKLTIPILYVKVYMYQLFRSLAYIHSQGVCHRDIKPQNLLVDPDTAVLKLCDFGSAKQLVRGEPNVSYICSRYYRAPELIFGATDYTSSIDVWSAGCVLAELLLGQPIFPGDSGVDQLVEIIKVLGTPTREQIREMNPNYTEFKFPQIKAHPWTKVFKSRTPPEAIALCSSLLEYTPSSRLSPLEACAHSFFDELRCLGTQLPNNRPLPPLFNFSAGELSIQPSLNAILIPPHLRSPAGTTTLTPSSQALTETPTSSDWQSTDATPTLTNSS
T7 sequence (P15735 whole entry): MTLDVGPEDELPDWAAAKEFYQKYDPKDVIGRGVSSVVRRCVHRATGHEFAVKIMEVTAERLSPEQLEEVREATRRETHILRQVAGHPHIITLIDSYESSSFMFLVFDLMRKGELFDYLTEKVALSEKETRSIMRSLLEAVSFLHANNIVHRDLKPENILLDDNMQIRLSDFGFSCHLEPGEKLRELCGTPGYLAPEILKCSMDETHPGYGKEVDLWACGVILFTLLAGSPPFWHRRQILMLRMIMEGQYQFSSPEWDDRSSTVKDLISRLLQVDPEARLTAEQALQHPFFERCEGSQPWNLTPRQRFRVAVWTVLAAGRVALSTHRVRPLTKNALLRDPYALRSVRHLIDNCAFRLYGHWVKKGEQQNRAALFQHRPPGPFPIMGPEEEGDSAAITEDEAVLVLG

CS(=O)(=O)Nc1ccccc1Nc1nc(Nc2cccc(OCCN)c2)ncc1F [CZC25342, N-(2-(2-(3-(2-aminoethoxy)phenylamino)-5-fluoropyrimidin-4-ylamino)phenyl)methanesulfonamide]
Competition % MAP3K7 [1]: 85.8%
Competition % IRAK3 [2]: 86.2%
Competition % ULK3 [3]: 94.8%
Competition % SLK [4]: 95.2%
Competition % TNK1 [5]: 94.1%
Competition % RON [6]: 96%
Competition % PHKg2 [7]: 93.4%
Competition % JAK1 [8]: 96.7%
Competition % TBK1 [9]: 88.8%
Competition % MPSK1 [10]: 92.1%
Competition % CDC2 [11]: 94.3%
Competition % IKKe [12]: 69%
Competition % LOK [13]: 97.7%
Competition % FER [14]: 96.7%
Competition % PKG1 [15]: 79.3%
Competition % MAP3K1 [16]: 64.6%
Competition % TYK2 [17]: 96.6%
Competition % GAK [18]: 95.9%
Competition % MAP3K2 [19]: 94.7%
Competition % ALK2 [20]: 96.4%
Competition % RSK3 [21]: 95.5%
Competition % MARK3 [22]: 96.2%
Competition % GSK3A [23]: 94.6%
Competition % JNK1 [24]: 84.3%

— patent publication US20120270237A9, “METHODS FOR THE IDENTIFICATION OF KINASE INTERACTING MOLECULES AND FOR THE PURIFICATION OF KINASE PROTEINS” (Cellzone AG, priority 2009, published 2012)
